Test results taken from US9856262B2, “Analogues of 4H-pyrazolo[1,5-a] benzimidazole compound as PARP inhibitors” (HUBEI BIO-PHARMACEUTICAL INDUSTRIAL TECHNOLOGICAL INSTITUTE …, priority 2014, dated 2018).
pEC50, pIC50: −log10 of the molar value. Where two headings read alike, the source gives them in different places.

Columns and labels:
[1] = biological target: T1, PARP-1 (Homo sapiens, UniProt P09874); assay: PARP enzymatic assay (HT Universal Colorimetric PARP1 Assay Kit); type: biochemical; settings: read-out: PARP-1 enzymatic inhibition IC50
T1 construct: purchased
Protocol: PARP Enzymatic Assay (Following the Manual of HT Universal Colorimetric PARP1 Assay Kit).
Histone proteins were coated on a 96-well plate and incubated overnight at 4° C. After be washed 3 times with 200 ul PBST solution, the plate was blocked with a blocking solution and incubated for 30 min at room temperature, and then washed with PBST solution 3 times. A compound to be tested was treated and added to the plate. Thereafter, 20 μl of diluted PARP1 (1 nM) or 20 μl of PARP2 (3 nM) solution was added into the reaction system and incubated for 1 or 2 hours. 50 ul of streptavidin-HRP mixture (1:50) was added into the plate and incubated for 30 min at room temperature. The plate was then washed with three times with PBST buffer. 100 μl of (HRP) (Chemiluminescent substrate A and substrate B (1:1)) was added into the plate, and the plate was immediately read on a microplate reader (Envision, PerkinElmer).

[2] = tested on: HCC1937 cells; assay: Cellular PARylation assay; type: cell-based
Protocol: Cellular PARylation Assay
HCC1937 cells were planted into 96 well plates at 4×10^4 cells/well and incubated at 37° C. in an incubator overnight. After being treated with a test compound for 30 min, cells were then treated with 1 mM H2O2 for 10 min. The cells were washed with 200 ul pre-chilled PBS twice and fixed with 100 ul pre-chilled methanol/acetone (7:3) on ice for 30 min. After being air-dried, the plates were blocked using PBS-Tween blocking solution (0.05%) with dissolved 5% nonfat dry milk for 30 min at room temperature. The cells were incubated with anti-PAR antibody 10H (1:100) at room temperature for 1 hour followed by washing with PBS-Tween20 for 3 times; and then added into a blocking solution including goat anti-mouse fluorescein isothiocyanate (FITC)-coupled secondary antibody and 1 μg/mL DAPI to incubate away from light at room temperature for 1 hour. After being washed with PBS-Tween20 for 3 times, the plate was analyzed with a fluorescence microplate counter (Flexstation III, Molecular Device).

[3] = Homo sapiens, HCC1937 cells, compound 30 min then 1 mM H2O2 10 min, read-out: cellular PARylation EC50

T1 sequence (P09874 whole entry): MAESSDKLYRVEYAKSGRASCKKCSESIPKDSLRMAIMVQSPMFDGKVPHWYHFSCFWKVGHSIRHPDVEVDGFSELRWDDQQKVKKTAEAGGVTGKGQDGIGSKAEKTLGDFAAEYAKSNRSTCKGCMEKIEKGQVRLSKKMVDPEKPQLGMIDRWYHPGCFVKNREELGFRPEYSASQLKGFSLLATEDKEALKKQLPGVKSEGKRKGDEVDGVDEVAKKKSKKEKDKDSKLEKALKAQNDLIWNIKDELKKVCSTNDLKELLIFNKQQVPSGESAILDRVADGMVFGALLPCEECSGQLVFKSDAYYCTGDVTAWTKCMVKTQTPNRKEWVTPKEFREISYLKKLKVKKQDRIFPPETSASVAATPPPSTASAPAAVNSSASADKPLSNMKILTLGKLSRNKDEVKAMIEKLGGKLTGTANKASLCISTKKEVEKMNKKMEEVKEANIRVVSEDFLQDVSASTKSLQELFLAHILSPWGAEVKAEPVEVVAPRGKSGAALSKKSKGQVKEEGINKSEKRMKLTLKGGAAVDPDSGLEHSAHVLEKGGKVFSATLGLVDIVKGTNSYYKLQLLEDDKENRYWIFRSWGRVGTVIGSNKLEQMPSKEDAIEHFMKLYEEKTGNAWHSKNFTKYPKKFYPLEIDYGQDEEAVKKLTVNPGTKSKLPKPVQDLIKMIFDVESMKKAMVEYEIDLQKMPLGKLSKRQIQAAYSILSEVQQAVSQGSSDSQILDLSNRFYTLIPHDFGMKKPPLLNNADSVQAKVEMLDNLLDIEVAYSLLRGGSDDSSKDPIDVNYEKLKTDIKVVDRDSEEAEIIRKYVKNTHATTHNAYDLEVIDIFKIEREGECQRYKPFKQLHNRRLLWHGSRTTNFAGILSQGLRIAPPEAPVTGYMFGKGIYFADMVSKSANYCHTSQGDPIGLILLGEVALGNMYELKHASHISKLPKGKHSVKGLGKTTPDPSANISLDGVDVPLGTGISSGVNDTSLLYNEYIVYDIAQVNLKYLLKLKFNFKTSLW

Structure (SMILES) | pIC50 [1] | pEC50 [2, 3] | pEC50 ([2]; HCC1937 cells, compound 30 min then 1 mM H2O2 10 min, read-out: cellular PARylation EC50) | pEC50 ([2]; Homo sapiens, HCC1937, read-out: cellular PARylation EC50)
NC(=O)c1cc(F)cc2[nH]c3c(C4CCN(C(=O)C5CC5)CC4)cnn3c12 [Example 8, 3-(1-(cyclopropylcarbonyl)piperidin-4-yl)-6-fluoro-4H-benzo[4,5]imidazo[1,2-b]pyrazole-8-carboxamide] | 7.00 to 9.00 | 6.00 to 7.00 |  | 
Cn1ccnc1CN1CCC(C)(c2cnn3c2[nH]c2cc(F)cc(C(N)=O)c23)CC1 [Example 84, 6-fluoro-3-(4-methyl-1-((1-methyl-1H-imidazol-2-yl)methyl)piperidin-4-yl)-4H-benzo[4,5]imidazo[1,2-b]pyrazole-8-carboxamide] | 7.00 to 9.00 | 7.00 to 9.00 |  | 
Cc1ncc(CN2CCC(C)(c3cnn4c3[nH]c3cc(F)cc(C(N)=O)c34)CC2)n1C [Example 85, 3-(1-((1,2-dimethyl-1H-imidazol-5-yl)methyl)-4-methylpiperidin-4-yl)-6-fluoro-4H-benzo[4,5]imidazo[1,2-b]pyrazole-8-carboxamide] | 7.00 to 9.00 | 7.00 to 9.00 |  | 
CC1(c2cnn3c2[nH]c2cc(F)cc(C(N)=O)c23)CCN(CC2(S(C)(=O)=O)CC2)CC1 [Example 73, 6-fluoro-3-(4-methyl-1-((1-(methylsulfonyl)cyclopropyl)methyl)piperidin-4-yl)-4H-benzo[4,5]imidazo[1,2-b]pyrazole-8-carboxamide] | 7.00 to 9.00 | 7.00 to 9.00 |  | 
N#CC1(c2cnn3c2[nH]c2cc(F)cc(C(N)=O)c23)CCN(CC2CC2)CC1 [Example 108, 3-(4-cyano-1-(cyclopropylmethyl)piperidin-4-yl)-6-fluoro-4H-benzo[4,5]imidazo[1,2-b]pyrazole-8-carboxamide] | 7.00 to 9.00 | 7.00 to 9.00 |  | 
CN1CCN(C(=O)c2cnn3c2[nH]c2cc(F)cc(C(N)=O)c23)CC1 [Example 49, 6-fluoro-3-(4-methylpiperazine-1-carbonyl)-4H-benzo[4,5]imidazo[1,2-b]pyrazole-8-carboxamide] | 7.00 to 9.00 | 6.00 to 7.00 |  | 
CCN1CCC(C)(c2cnn3c2[nH]c2cc(F)cc(C(N)=O)c23)C1 (stereo not shown) [Example 90, 3-(1-ethyl-3-methylpyrrolidin-3-yl)-6-fluoro-4H-benzo[4,5]imidazo[1,2-b]pyrazole-8-carboxamide] | 7.00 to 9.00 | 7.00 to 9.00 |  | 
CC1(c2cnn3c2[nH]c2cc(F)cc(C(N)=O)c23)CCN(Cc2nccs2)CC1 [Example 74, 6-fluoro-3-(4-methyl-1-(thiazol-2-ylmethyl)piperidin-4-yl)-4H-benzo[4,5]imidazo[1,2-b]pyrazole-8-carboxamide] | 7.00 to 9.00 | 6.00 to 7.00 |  | 
CCCN1CCC(c2cnn3c2[nH]c2cc(F)cc(C(N)=O)c23)CC1 [Example 12, 6-fluoro-3-(1-propylpiperidin-4-yl)-4H-benzo[4,5]imidazo[1,2-b]pyrazole-8-carboxamide] | 7.00 to 9.00 | 7.00 to 9.00 |  | 
NC(=O)c1cc(F)cc2[nH]c3c(C45CC4CN(CC4CC4)C5)cnn3c12 (stereo not shown) [Example 31, 3-(3-(cyclopropylmethyl)-3-azabicyclo[3.1.0]hexan-1-yl)-6-fluoro-4H-benzo[4,5]imidazo[1,2-b]pyrazole-8-carboxamide] | 7.00 to 9.00 | 7.00 to 9.00 |  | 
NC(=O)c1cc(F)cc2[nH]c3c(C4CCOCC4)cnn3c12 [Example 47, 6-fluoro-3-(tetrahydro-2H-pyran-4-yl)-4H-benzo[4,5]imidazo[1,2-b]pyrazole-8-carboxamide] | 7.00 to 9.00 | < 6.00 |  | 
NC(=O)c1cc(F)cc2[nH]c3c(-c4ccc(C5CCCNC5)cc4)cnn3c12 (stereo not shown) [Example 46, 6-fluoro-3-(4-(piperidin-3-yl)phenyl)-4H-benzo[4,5]imidazo[1,2-b]pyrazole-8-carboxamide] | 6.00 to 7.00 | < 6.00 |  | 
NC(=O)c1cc(F)cc2[nH]c3c(CNC(=O)C4CC4)cnn3c12 [Example 40, 3-(cyclopropanecarboxamidomethyl)-6-fluoro-4H-benzo[4,5]imidazo[1,2-b]pyrazole-8-carboxamide] | 7.00 to 9.00 | < 6.00 |  | 
CCN1CCC(c2cnn3c2[nH]c2cc(F)cc(C(N)=O)c23)CC1 [Example 2, 3-(1-ethylpiperidin-4-yl)-6-fluoro-4H-benzo[4,5]imidazo[1,2-b]pyrazole-8-carboxamide] | 7.00 to 9.00 | 7.00 to 9.00 |  | 
NC(=O)c1cccc2cn(-c3ccc([C@@H]4CCCNC4)cc3)nc12 [MK-4827, niraparib, reference compound] |  | 7.00 to 9.00 |  | 
NC(=O)c1cc(F)cc2[nH]c3c(C4(CO)CCN(CC5CC5)CC4)cnn3c12 [Example 109, 3-(1-(cyclopropylmethyl)-4-(hydroxymethyl)piperidin-4-yl)-6-fluoro-4H-benzo[4,5]imidazo[1,2-b]pyrazole-8-carboxamide] | 7.00 to 9.00 | 6.00 to 7.00 |  | 
CN1CCCC1c1cnn2c1[nH]c1cc(F)cc(C(N)=O)c12 (stereo not shown) [Example 25, 6-fluoro-3-(1-methylpyrrolidin-2-yl)-4H-benzo[4,5]imidazo[1,2-b]pyrazole-8-carboxamide] | 7.00 to 9.00 | 7.00 to 9.00 |  | 
Cc1ncsc1CN1CCC(C)(c2cnn3c2[nH]c2cc(F)cc(C(N)=O)c23)CC1 [Example 83, 6-fluoro-3-(4-methyl-1-((4-methylthiazol-5-yl)methyl)piperidin-4-yl)-4H-benzo[4,5]imidazo[1,2-b]pyrazole-8-carboxamide] | 7.00 to 9.00 | 7.00 to 9.00 |  | 
CC1(c2cnn3c2[nH]c2cc(F)cc(C(N)=O)c23)CCN(CC2COC2)CC1 [Example 68, 6-fluoro-3-(4-methyl-1-(oxetan-3-ylmethyl)piperidin-4-yl)-4H-benzo[4,5]imidazo[1,2-b]pyrazole-8-carboxamide] | 7.00 to 9.00 | 7.00 to 9.00 |  | 
NC(=O)c1cc(F)cc2[nH]c3c(C4CCN(CC5CC5)CC4)cnn3c12 [Example 5, 3-(1-(cyclopropylmethyl)piperidin-4-yl)-6-fluoro-4H-benzo[4,5]imidazo[1,2-b]pyrazole-8-carboxamide] | 7.00 to 9.00 | 7.00 to 9.00 |  | 
NC(=O)c1cc(F)cc2[nH]c3c(C4C5CNCC54)cnn3c12 (stereo not shown) [Example 33, 3-(3-azabicyclo[3.1.0]hexan-6-yl)-6-fluoro-4H-benzo[4,5]imidazo[1,2-b]pyrazole-8-carboxamide] | 7.00 to 9.00 | 6.00 to 7.00 |  | 
NC(=O)c1cc(F)cc2c1-n1ncc(C3CCN(CC4CC4)CC3)c1C2(F)F [Example 50, 3-(1-(cyclopropylmethyl)piperidin-4-yl)-4,4,6-trifluoro-4H-pyrazolo[1,5-α]indole-8-carboxamide] | 6.00 to 7.00 | < 6.00 |  | 
CCN1CCC(C)(c2cnn3c2[nH]c2cc(Cl)cc(C(N)=O)c23)CC1 [Example 89, 6-chloro-3-(1-ethyl-4-methylpiperidin-4-yl)-4H-benzo[4,5]imidazo[1,2-b]pyrazole-8-carboxamide] | 7.00 to 9.00 | 6.00 to 7.00 |  | 
CCCN1CCCC1c1cnn2c1[nH]c1cc(F)cc(C(N)=O)c12 (stereo not shown) [Example 24, 6-fluoro-3-(1-propylpyrrolidin-2-yl)-4H-benzo[4,5]imidazo[1,2-b]pyrazole-8-carboxamide] | 7.00 to 9.00 | 6.00 to 7.00 |  | 
C[C@]1(c2nc3c(C(N)=O)cccc3[nH]2)CCCN1 [ABT-888, veliparib, reference compound] |  |  | 7.00 to 9.00 | 
Cn1ncnc1[C@H]1c2n[nH]c(=O)c3cc(F)cc(c23)N[C@@H]1c1ccc(F)cc1 [BMN-673, reference compound] |  |  |  | 7.00 to 9.00
